Entries after “also recorded” stand apart in the source; their conditions may differ. Counter-ions that a name gives are not always drawn.
How the values were obtained:
HeLa cells = assay: DNA fragmentation (apoptosis) in HeLa cells; format: cell-based; conditions: cPrG-HCl together with TNFα, FIG. 1A, hydrochloride
Protocol: Cell culture: HeLa cells were cultured in Dulbecco's modified Eagle's medium supplemented with 10% fetal bovine serum and 50 μg/ml kanamycin at 37° C. in 5% CO2 in air.
(§1) Assay for apoptotic processes: Cell viability was determined by dye exclusion assay using 0.1% trypan blue. DNA fragmentation was analyzed as described previously (Kawauchi, K. et al. (1997) Biochem. Biophys. Res. Commun. 237, 543-547). In the caspase-3 assay, cells were disrupted by freeze-thaw in an extraction buffer (50 mM Tris-HCl, pH7.4, 1 mM EGTA, 5 mM EDTA, 5 mM MgCl2, 1 mM APMSF, 10 μg/ml pepstatin, 10 μg/ml leupeptin, and 1 mM DTT). Then the suspension was centrifuged at 15,000 rpm for 20 min, and the supernatants obtained were incubated at 37° C. for 60 min in a reaction buffer (50 mM Tris-HCl, pH7.4, 1 mM EDTA, 10 mM EGTA) with 20 μM of the fluorogenic substrate DEVD-AFC (Peptide Institute, Inc., Japan). Cleavage of the substrates was quantified by measuring the fluorescence of 7-amino-4-trifluomethyl coumarin released using a spectrofluorometer (Shimadzu RF5000) with excitation at 380 mn and emission at 460 nm.
(§2) HeLa cells were treated with TNFα and cPrG.HCl and the effect of cPrG.HCl on apoptosis was examined by measuring DNA fragmentation and survivability.

caspase-3 = assay: Caspase-3 assay with DEVD-AFC on cell extracts; format: cell-based; conditions: HeLa cells, cPrG-HCl and TNFα, FIG. 1B; hydrochloride
Protocol: as §1, §2

IKK = target: T1, IKK (Homo sapiens, UniProt O14920+O15111); conditions: earlier abstract of the inventors (Kamata et al., 2000); cited from earlier work
T1 construct: host or cells: HeLa cells (inferred)
T1 sequence (O15111 whole entry): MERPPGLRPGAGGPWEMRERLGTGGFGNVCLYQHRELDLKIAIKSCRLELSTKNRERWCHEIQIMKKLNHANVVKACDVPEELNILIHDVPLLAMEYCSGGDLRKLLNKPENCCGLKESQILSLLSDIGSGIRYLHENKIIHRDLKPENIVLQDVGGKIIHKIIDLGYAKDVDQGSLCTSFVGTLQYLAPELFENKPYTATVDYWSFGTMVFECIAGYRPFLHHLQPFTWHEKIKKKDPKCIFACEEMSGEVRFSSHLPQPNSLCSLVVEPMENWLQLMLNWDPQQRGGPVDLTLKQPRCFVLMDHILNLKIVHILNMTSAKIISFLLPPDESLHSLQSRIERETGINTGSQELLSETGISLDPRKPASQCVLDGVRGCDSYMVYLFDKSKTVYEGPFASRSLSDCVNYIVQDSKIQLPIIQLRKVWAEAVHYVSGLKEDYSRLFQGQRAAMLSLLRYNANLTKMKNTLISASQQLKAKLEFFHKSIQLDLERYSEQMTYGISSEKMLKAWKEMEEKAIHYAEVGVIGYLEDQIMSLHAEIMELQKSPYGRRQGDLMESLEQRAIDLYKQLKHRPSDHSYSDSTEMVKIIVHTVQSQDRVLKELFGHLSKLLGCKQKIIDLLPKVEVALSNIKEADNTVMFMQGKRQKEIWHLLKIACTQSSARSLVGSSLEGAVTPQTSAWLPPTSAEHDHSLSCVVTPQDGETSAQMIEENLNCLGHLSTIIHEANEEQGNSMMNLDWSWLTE
T1 sequence (O14920 whole entry): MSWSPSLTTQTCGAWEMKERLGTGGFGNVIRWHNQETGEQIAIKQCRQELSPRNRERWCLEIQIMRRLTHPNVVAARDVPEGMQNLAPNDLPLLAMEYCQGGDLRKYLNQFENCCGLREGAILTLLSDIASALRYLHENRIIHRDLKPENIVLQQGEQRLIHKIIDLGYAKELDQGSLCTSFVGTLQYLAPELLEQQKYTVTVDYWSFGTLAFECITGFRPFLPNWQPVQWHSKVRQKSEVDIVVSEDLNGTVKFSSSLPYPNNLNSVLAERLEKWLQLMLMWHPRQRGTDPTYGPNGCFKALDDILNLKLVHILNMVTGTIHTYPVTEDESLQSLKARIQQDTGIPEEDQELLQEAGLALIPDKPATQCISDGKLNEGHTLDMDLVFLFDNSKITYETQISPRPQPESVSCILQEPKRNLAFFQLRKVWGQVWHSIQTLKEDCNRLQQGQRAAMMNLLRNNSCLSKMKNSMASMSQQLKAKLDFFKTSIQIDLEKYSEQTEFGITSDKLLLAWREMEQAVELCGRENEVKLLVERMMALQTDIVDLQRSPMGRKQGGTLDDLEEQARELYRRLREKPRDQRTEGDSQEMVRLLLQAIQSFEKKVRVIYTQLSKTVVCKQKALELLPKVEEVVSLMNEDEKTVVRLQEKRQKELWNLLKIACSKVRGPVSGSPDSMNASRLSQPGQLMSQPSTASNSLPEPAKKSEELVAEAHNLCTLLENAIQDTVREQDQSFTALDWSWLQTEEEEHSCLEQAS
T1 sequence (Q9Y6K9 whole entry partner): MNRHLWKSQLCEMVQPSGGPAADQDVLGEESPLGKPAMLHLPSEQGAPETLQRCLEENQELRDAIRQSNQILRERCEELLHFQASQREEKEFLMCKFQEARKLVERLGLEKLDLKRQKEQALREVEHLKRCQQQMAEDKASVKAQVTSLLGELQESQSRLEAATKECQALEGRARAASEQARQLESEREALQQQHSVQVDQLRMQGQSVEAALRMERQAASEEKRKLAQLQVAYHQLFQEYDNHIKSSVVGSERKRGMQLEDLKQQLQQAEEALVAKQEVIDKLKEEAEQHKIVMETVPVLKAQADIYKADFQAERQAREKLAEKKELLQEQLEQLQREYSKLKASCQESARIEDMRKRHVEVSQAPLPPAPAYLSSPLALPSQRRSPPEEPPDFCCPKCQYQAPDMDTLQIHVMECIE

## COC1=CC(c2ccc[nH]2)=N/C1=C\c1[nH]c(C)c2c1C(C)CCC2 (stereo not drawn) [cPrG-HCl, Cycloprodigiosin hydrochloride]
HeLa cells
  DNA fragmentation: marked DNA fragmentation; also recorded: significant DNA fragmentation
caspase-3
  caspase-3 activation: markedly induced; also recorded: marked synergistic caspase-3 activation
IKK
  IKK activation: no suppressive effect

Source: US20040048791A1, “Method for treating neoplastic cells using cycloprodigiosin or salt thereof” (priority 2002, published 2004)
